According to patent US8207188B2, “Treatment of diseases modulated by a H4 receptor agonist” (priority 2006, dated 2012):
“Also recorded” adds a separate entry of the source.

Tests used:
[1] = test system: human TF1 cells that express H4R; experiment: TF1 cell proliferation assay (GM-CSF promoted); type: cell-based; details: Homo sapiens, TF-1, 72 h; 10 μM, 3 days, three separate assays (n=3)
Procedure: Tritoqualine was tested on a cell proliferation assay using human TF1 cells that express H4R.
TF1 cell proliferation is promoted using granulocyte/macrophage colony-stimulating factor (GM-CSF). In this cell proliferation model H4R agonists inhibit cell proliferation. Clobenpropit (CB), a known H4R agonist at a dose of 10^−5M (10 μM) was used as a known cell proliferation inhibition control. […] Each experiment used 100,000 TF1 cells/mL incubated for three days with GM-CSF (10 ng/mL). After addition of TRQ in the range of 10^−5M (10 μM) to 10^−7 M (0.1 μM), and incubation for 3 days, cell proliferation was assessed and compared to that of 10 μM CB.

[2] = test system: Mouse medullary cells C57B1/6 expressing H4R; experiment: Proliferation of Colony Forming Cells (CFC) in semi-solid media; type: cell-based; details: 10 μM, 7 days
Procedure: Using the assay described in Example 15, above, the effect of TRQ or CB on cells expressing H4R was tested. Mouse medullary cells C57B1/6 expressing H4R (50,000 cells/Petri dish) were incubated in a semi-solid media with haematopoietic growth factors (IL-3: 10 ng/ml) for 7 days with TRQ or CB.
Using the assay described in Example 15, above, the effect of TRQ or CB on cells expressing H4R was tested. Mouse medullary cells C57B1/6 expressing H4R (50,000 cells/Petri dish) were incubated in a semi-solid media with haematopoietic growth factors (IL-3: 10 ng/ml) for 7 days with a TRQ (racemic mixture of RR and SS isomers at 1 μM and 10 μM concentration); TRQ isomer E1 (10 μM concentration); TRQ isomer E2 (10 μM concentration) and CB (10 μM concentration).

[3] = test system: Mouse medullary cells C57B1/6 expressing H4R; experiment: Percentage of cells at G0/G1 phase, TRQ racemate and enantiomers with and without CB (Example 21); type: cell-based; details: 10 μM, compared to control (GF only)
Procedure: This experiment was conducted at two concentrations for all TRQ molecules (10 μM and 1 μM) in the presence and absence of CB (10 μM).
Using the assay described in Example 15, above, the effect of TRQ or CB on cells expressing H4R was tested. Mouse medullary cells C57B1/6 expressing H4R (50,000 cells/Petri dish) were incubated in a semi-solid media with haematopoietic growth factors such as IL-3 (10 ng/ml) for 7 days with a TRQ (racemic mixture of RR and SS isomers at 1 μM and 10 μM concentration); purified TRQ isomer E1 (10 μM and 1 μM concentration); purified TRQ isomer E2 (10 μM and 1 μM concentration) and CB (10 μM concentration). […] Similar results were shown with the purified TRQ isomers. In each experiment cells were incubated in the presence of growth factors (GF, FIG. 15).

[4] = test system: ckit positive hematopoietic progenitor cells; experiment: ckit receptor expression on hematopoietic progenitor cells; type: cell-based; details: 10 μM
Description: In FIG. 16 the reference to CB-5, E1-5, and E2-5 is the same as above. CKit is a receptor on the surface of hematopoetic cells. Quantifying the ckit receptor is a measure of the differentiation from the progenitor state to the hematopoetic cell state.

H4R = target: T1, H4R (Mus musculus, UniProt Q91ZY2); experiment: Cell cycle status after H4R silencing with siRNA; type: cell-based; details: 10 μM; H4R siRNA transfected c-kit+ cells
T1 construct: endogenous in cells; host or cells: freshly sorted c-kit+ haematopoietic progenitor cells
T1 sequence (Q91ZY2 1-391): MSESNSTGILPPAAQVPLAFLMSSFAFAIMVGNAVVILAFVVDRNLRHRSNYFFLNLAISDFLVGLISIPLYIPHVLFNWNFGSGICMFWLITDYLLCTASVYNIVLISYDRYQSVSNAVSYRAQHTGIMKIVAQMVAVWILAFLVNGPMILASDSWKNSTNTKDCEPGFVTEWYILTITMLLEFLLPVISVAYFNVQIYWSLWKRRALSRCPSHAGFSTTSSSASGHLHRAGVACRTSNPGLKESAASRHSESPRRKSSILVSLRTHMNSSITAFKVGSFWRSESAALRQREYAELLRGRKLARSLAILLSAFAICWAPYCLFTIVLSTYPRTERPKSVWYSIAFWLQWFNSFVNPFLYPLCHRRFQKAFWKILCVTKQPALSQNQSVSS
Procedure: H4R silencing was performed with freshly sorted c-kit^+ cells. For transfection, 3 μl of HiPerFect reagent (Qiagen; Courtaboeuf, France) and 4 μl ([…]) of human and 8 μl (80 pmol) of murine H4R siRNA, scrambled FITC-labeled or unconjugated control siRNAs (all from Santa Cruz Biotechnology) were incubated in 50 μl x-vivo medium (Cambrex; East Rutherford, N.J.) for 20 min at room temperature. The mixture was then added to 50 μl of cell suspension at a final concentration of 10^6 cells/ml and incubated for 20 h, when transfection efficiency was verified with scrambled FITC-conjugated siRNA. Cells were then centrifuged and resuspended at a concentration of 10^5 cells/ml in StemSpan medium with growth factor cocktail. The extinction of H4R protein expression was ascertained by FACS analysis after 24 h. After 3 days of culture with or without tritoqualine (10 μM) or Clobenpropit (10 μM) cells were counted and their viability was assessed by trypan blue exclusion. The cell cycle status was assessed after an overnight incubation.

[5] = test system: hematopoietic progenitor cells; experiment: CFU of hematopoietic progenitor cells in the presence of Ara-C; type: cell-based
Description: Ara-C is a chemotherapeutic agent that kills cancel cells (or actively dividing cells).

[6] = Reintroduction of causal food allergen in food allergy patients; type: in vivo, human; details: baseline patients treated with one drug alone
Description: Allergens tested came from either […], or ALLERBIO.
The direct test with the Nutella® was strongly positive for allergy. This patient was hospitalized in two occasions for the same dramatic allergic reaction to Nutella® spread. Furthermore, the patient presented allergies to pneumoallergens.
Continuation of the above treatment for over 8 months afforded reversal of allergic and digestive symptoms due to food allergy.
The patient under study had survived two cases of anaphylactic shock due to ingestion of shrimps. […] Later the patient was able to ingest five shrimps without any local signs and no global reaction.
Baseline patients had signs of food allergies and the food allergy symptoms were not adequately managed with an H1 antagonist and cromoglycate. A group of 15 patients presenting signs of food allergies is tested with allergens such as the following: peanut, milk, tomato, potato, flour of wheat, soybean, fish, and shrimp. Allergens tested came from either […], or ALLERBIO.
All patients had history of hospitalization and reactions such as Quincke's edema and asthma crisis. Most of the causal allergens were peanut (six patients), egg (four patients) and soybean (five patients) of them (with other several positive food allergens at different degrees of reaction). […]

Row | Structure (SMILES) | inhibition at 10 µM [1] [%] | inhibition of proliferation of CFC ([2]; Example 16, IL-3 10 ng/ml) | inhibitory activity of cell proliferation (CFC) ([2]; Example 20) | percentage of cells at the G0/G1 phase / inhibitory activity of cell proliferation [3] | ckit expression [4] | activity inhibiting the cell cycle at the G0/G1 phase after H4R siRNA (H4R) | protection of cells / cell CFU in the presence of Ara-C [5] | management of food allergy symptoms with the single drug [6]
1 | NC(=NCc1ccc(Cl)cc1)SCCCc1cnc[nH]1 [CB, N′-[(4-chlorophenyl)methyl]-1-[3-(3H-imidazol-4-yl)propylthio]formamidine] | 23 | inhibits the proliferation of CFC | inhibits the proliferation of CFC | increases the percentage of cells at the G0/G1 phase; also recorded: slightly better inhibitory activity of cell proliferation compared to that of Racemic TRQ | inhibits of ckit expression | reversed | provides protection to the cells | 
2 | CC(C)(O)c1ccccc1CC[C@@H](SCC1(CC(=O)O)CC1)c1cccc(/C=C/c2ccc3ccc(Cl)cc3n2)c1 [Montelukast®] |  |  |  |  |  |  |  | did not yield satisfactory management
